Data from patent US20060078961A1, “Systems and methods for rapidly changing the solution environment around sensors” (priority 2002, published 2006).

Test system: PC-12 cell
Conditions: flow rate 3.24 mm/s, scanning speed 250 μm/s
Text: The flow rate was 3.24 mm/s and the cell scanning speed was 250 μm/s.
The width of each channel is 100 μm, the thickness is 50 μm, and the interchannel spacing is 25 μm. The procedure used for fabricating the microchannels and for patch clamping are identical to that described in Example 2 (see above). The patch clamped cell used was a PC-12 cell, which was placed between 10 to 20 micrometers away from the outlets of the microchannels. Channels 1, 3, 5 and 7 were filled with PBS buffer, while channels 2, 4 and 6 were filled with acetylcholine. The flow rate of the fluid streams was 6.8 mm/s.
The channel structure and experimental setup used in Example 3 can be used to carry out dose-response measurements, in which the concentrations of the ligands in each of the ligand streams differ by predetermined amounts. […] In this 7-channel structure, channels 1, 3, 5 and 7 were filled with PBS buffer, whereas channels 2, 4, and 6 were filled with 1 μM, 12 μM, and 200 μM nicotine, respectively. The flow rate used was 3.24 mm/s and the cell-scanning speed was 250 μm/s. The patch-clamped cell was placed between 10 to 20 μm away from the outlet of the microchannel.

In the case of CN1CCCC1c1cccnc1 (stereo not drawn) [nicotine], the Whole-cell current response (1 μM nicotine) is reported as “barely discernible”, the Whole-cell current peak (12 μM nicotine) is reported as “detected with good signal-to-noise ratio” and the “Current peak at 200 μM relative to peak for 12 μM” value (200 μM vs 12 μM nicotine) is reported as 15 to 20 times.
